# From patent publication US10724010B2 (The Regents of the University of California, priority 2013, dated 2020)
# Read-outs that look alike come from different tables or passages of the source.
# Experiments:
# [1] = system: Caulobacter strain KR3557 (chlorite dismutase expression plasmid); settings: 0.5 mM chlorite, 1:1 co-culture with KR260, 30° C
# Experimental: (§1) Caulobacter crescentus NA 1000 harboring either pJS71 (KR260) or pJS14-xylX::cld (KR3557) were grown in PYE medium supplemented with 0.1% ferrous sulphate/chelate (Sigma # F0518) and 0.3% xylose to induce cld expression. pJS71 is a derivative of the broad-host-range plasmid pBBR1MCS (Kovach, M. E., et al. (1994) Biotechniques 16:800-2), which confers resistance to spectinomycin. […] Samples were withdrawn from each co-culture at the indicated times, diluted, and plated on PYE medium supplemented with 1 μg/ml chloramphenicol or with 100 μg/ml spectinomycin to enumerate survivors of each species.
# (§2) Rather, both strains were co-cultured in PYE medium without selection, samples were taken, and the number of surviving colonies that were resistant to spectinomycin (KR260) or chloramphenicol (KR3557) were counted at the indicated times (FIG. 8).
# [2] = system: Caulobacter strain KR260 (empty plasmid); settings: 0.5 mM chlorite, 1:1 co-culture with KR3557, 30° C
# Experimental: as §1, §2
# [3] = system: Shewanella oneidensis strain MR-1 engineered strain (ICC38); settings: aerobic
# [4] = system: Azospira suillum strain PS Δcld mutant; settings: grown aerobically, 40 μM chlorite
# Experimental: (§3) Azospira suillum PS (ATCC BAA-33/DSMZ 13638) was revived from a lab freezer stock and used as the wild-type strain for all genetic manipulations. Various E. coli strains were also used for cloning and conjugation purposes. Prior to all growth curves and genetic manipulations, all strains were streaked out from master freezer stocks to get single colonies.
# (§4) E. coli strains were grown in LB media. Kanamycin (Kan, […]) was used for selection and diaminopimelic acid (DAP, 0.3 mM) was used as a supplement to cultivate the auxotrophic strain WM3064. For routine culturing as well as growth assays, wild-type and mutant strains of PS were grown in ALP media. One liter of ALP media is composed of 0.49 g monobasic sodium phosphate dihydrate, 0.97 g dibasic anhydrous sodium phosphate, 0.1 g potassium chloride, 0.25 g ammonium chloride, 0.82 g sodium acetate, 2.0 g yeast extract, 7.6 g of a 60% w/w sodium lactate solution, 1.10 g sodium pyruvate and 10 mL of both vitamin mix and mineral mix. To make solid ALP media for plates, 15 g/L agar was added. Kanamycin was used for selection of PS mutants at a concentration of […]. For anaerobic growth of PS, ALP media was supplemented with either 5 mM sodium nitrate, 2.5 mM sodium perchlorate, or 5 mM of both sodium nitrate and sodium perchlorate.
# [5] = system: Azospira suillum strain PS (wild type); settings: grown aerobically, 40 μM chlorite
# Experimental: as §3, §4
# [6] = system: bacteriophage that attacks Pseudomonas chloritidismutans; settings: LB, 60 μM chlorite plus phage together, 37° C
# Experimental: (§7) For growth experiments, P. chloritidismutans was grown in LB medium to an OD600 of 0.233 (selected from a dilution series made from an overnight culture). […] Each condition was replicated in six wells of a microtiter plate incubated at 37° C. Optical density (600 nm) was recorded during growth in a plate reader.
# [7] = system: wild-type Caulobacter crescentus NA1000 harboring pJS14; settings: PYE with 0.3% xylose
# Experimental: (§5) Wild-type Caulobacter crescentus NA1000 (Marks, M. E., et al. (2010) J. Bacteriol. 192:3678-88) was grown in peptone-yeast extract medium (PYE; see Ely, B. (1991) Methods Enzymol. 204:372-84) supplemented with 0.1% (v/v) ferrous sulphate/chelate solution (Sigma # F0518). The plasmid pJS14 is a derivative of the broad-host-range cloning vector pBBR1MCS (Kovach, M. E., et al. (1994) Biotechniques 16:800-2), which confers resistance to chloramphenicol. To express Cld from pJS14, the cld open reading frame from P. chloritidismutans was placed behind a ˜430 base pair NcoI-EcoRI fragment of the xylX promoter from C. crescentus (Meisenzahl, A. C., et al. (1997) J. Bacteriol. 179:592-600). pJS14-xylX::cld or the empty vector pJS14 was transformed into NA1000 with selection using 1 μg/ml chloramphenicol.
# (§6) The two strains were grown separately in PYE/chloramphenicol/ferrous sulphate supplemented with 0.3% xylose to induce cld expression. […] Each strain/condition was assayed in six individual wells.
# [8] = system: Caulobacter crescentus NA1000 harboring pJS14-xylX::cld; settings: PYE with 0.3% xylose
# Experimental: as §5, §6
# [9] = system: Shewanella oneidensis strain MR-1 wild type containing an empty expression vector (strain RAM13); settings: aerobic
# [10] = system: lytic phage particles; settings: culture medium treated with chlorite at 15 mM; cited from earlier work
# [11] = system: Pseudomonas chloritidismutans; settings: LB, 60 μM chlorite alone, 37° C
# Experimental: as §7
substance,measurement,setting,value
chlorite,growth of KR3557 in co-culture,[1],slightly reduced rate
same,growth of KR260 in co-culture,[2],completely blocked
same,growth of the recombinantly engineered strain (ICC38),[3]; 250 μM chlorite,unimpaired
same,growth of the recombinantly engineered strain (ICC38),[3]; 1000 μM chlorite,minimal growth impairment
same,growth of the Δcld mutant,[4],no growth is observed
same,growth of the wild type strain,[5],unimpaired
same,growth of P. chloritidismutans with live phage,[6],wild-type growth rate
same,growth of wild-type Caulobacter (pJS14),[7]; 1 mM chlorite,completely blocked
same,growth of wild-type Caulobacter (pJS14),[7]; 4 mM chlorite,completely blocked
same,growth of Caulobacter expressing chlorite dismutase versus control medium lacking chlorite,[8]; 1 mM chlorite,growing at the same rate
same,growth of Caulobacter expressing chlorite dismutase versus control medium lacking chlorite,[8]; 4 mM chlorite,growing at the same rate
same,growth of the wild type strain (RAM13),[9]; 250 μM chlorite,significant reduction in the growth rate
same,growth of the wild type strain (RAM13),[9]; 1000 μM chlorite,completely inhibited
same,reduction in lytic phage particles,[10],greater than 99%
same,growth of P. chloritidismutans,[11],did not hinder the growth
